Data reported in PMC8571951, “An activity‐based bioprobe differentiates a novel small molecule inhibitor from a LOXL2 antibody and provides renewed promise for anti‐fibrotic therapeutic strategies” (Clinical and Translational Medicine, 2021).

Molecular target: T1, LOXL2 (Homo sapiens, UniProt Q9Y4K0)
T1 sequence (Q9Y4K0 26-774): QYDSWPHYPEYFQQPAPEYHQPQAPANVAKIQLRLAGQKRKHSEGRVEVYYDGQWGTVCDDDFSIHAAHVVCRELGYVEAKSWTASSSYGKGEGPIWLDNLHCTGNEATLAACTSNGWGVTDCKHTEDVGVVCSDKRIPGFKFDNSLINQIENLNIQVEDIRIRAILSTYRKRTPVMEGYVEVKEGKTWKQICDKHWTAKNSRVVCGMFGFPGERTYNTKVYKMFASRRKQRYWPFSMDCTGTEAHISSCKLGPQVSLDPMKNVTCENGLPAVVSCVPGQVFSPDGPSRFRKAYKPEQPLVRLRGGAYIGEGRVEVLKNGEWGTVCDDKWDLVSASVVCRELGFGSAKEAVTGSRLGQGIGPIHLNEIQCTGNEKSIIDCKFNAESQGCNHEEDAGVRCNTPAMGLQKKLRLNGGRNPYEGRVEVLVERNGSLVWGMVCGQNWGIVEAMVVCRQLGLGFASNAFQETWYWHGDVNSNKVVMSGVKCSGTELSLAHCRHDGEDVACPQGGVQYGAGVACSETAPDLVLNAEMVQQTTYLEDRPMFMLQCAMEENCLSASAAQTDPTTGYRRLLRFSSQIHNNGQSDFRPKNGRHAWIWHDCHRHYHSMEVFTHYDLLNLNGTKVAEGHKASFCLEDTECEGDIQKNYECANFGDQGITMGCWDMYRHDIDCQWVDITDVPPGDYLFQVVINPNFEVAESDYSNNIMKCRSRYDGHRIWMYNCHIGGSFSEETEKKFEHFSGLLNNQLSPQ
Assay: Standard Amplex Red assay, rh LOXL2 (putrescine substrate)
Format: biochemical
Conditions: for IC50: Amplex Red assay, 30 min pre-incubation
From the text: FIGURE 1 Characteristics of the activity‐based probe (ABP) PXS‐5878. (A) Chemical structure of PXS‐5878, with functional subunits denoted with different colours. The fluoroallylamine moiety (blue) was designed to interact with the lysine tyrosylquinone (LTQ) co‐factor within the lysyl oxidase active sites. An extended linker (green) was incorporated to provide optimal separation between the reactive functional group and the tag, avoiding unfavourable steric hindrance. Biotin was selected as a tag, with higher sensitivity found to be achieved using a double tag (red), resulting in PXS‐5878 as the preferred ABP. (B) Concentration‐dependent inhibition of recombinant human (rh) lysyl oxidase‐like 1‐4 (LOXL1‐4) and native bovine LOX in a standard Amplex Red assay with 30 min pre‐incubation; n = 3–4 independent experiments, standard error of mean (SEM). Native bovine LOX was used as a surrogate for human LOX as both enzymes have similar pharmacology for fluoroallylamines.[2], [9] (C) Irreversible nature of PXS‐5878 enzyme inhibition confirmed using a jump dilution assay. Enzyme (rh LOXL1, rh LOXL2 or LOXL3) was pre‐incubated with 10 × IC50 of PXS‐5878 for 30 min, then diluted 100x and remaining activity assessed by Amplex Red assay. […] Each value is an average of three experiments. (D) Schematic representation of the assay development to detect lysyl oxidase activity by PXS‐5878 using a direct enzyme‐linked assay with lysyl oxidases as the target analyte. HRP: horseradish peroxidase; TMB: 3,3′,5,5′‐tetramethylbenzidine, a chromogenic substrate. After target analyte is bound to the plate, PXS‐5878 was incubated for 60 min in the presence or absence of a pan‐LOX inhibitor (β‐aminopropionitrile, [BAPN]) and streptavidin‐HRP is then added. After incubation the plate is washed and TMB added to measure the amount of bound ABP/streptavidin/HRP. This leads to a high signal. Application of BAPN to block the enzymatic site prevents PXS‐5878 from binding, and it is consequently washed off the plate, resulting in a low signal. In the final Simoa® assay, the enzyme is bound by the antibody to the bead. (E) Detection of enzymatically active lysyl oxidases by PXS‐5878. rh LOXL1, LOXL2 or LOXL3 were immobilised on the surface of a microtiter plate and processed as described in (D). Optical density in the absence of the pan‐LOX inhibitor BAPN (high signal) was divided by the value in the presence of BAPN (low signal). Low signal was 1.81 ± 0.77 (n = 8) times larger than blank controls. Two independent replicates were performed (total n = 4–5 for each enzyme).
Small molecule, selective LOXL2 (PXS‐5338, Figure S3) or pan‐LOX inhibitors compete with substrate but ultimately occupy the enzymatic pocket, irrespective of whether the substrate is small (e.g., putrescine) or large (e.g., collagen). […] Further studies with AB0023 were therefore limited to 300 nM.
FIGURE 2 Characteristics of PXS‐5338 and inhibition of lysyl oxidase‐like 2 (LOXL2) enzymatic activity in vitro and in vivo. (A) Chemical structure of PXS‐5338. […] (B) Tissue levels of PXS‐5338 measured 1 and 4 h after a single oral dose of 30 mg/kg in the rat. […] Average data from three different animals. (C) Concentration‐dependent inhibition of native human LOX and rh LOXL1‐4 in a standard Amplex Red assay with 30 min pre‐incubation; n ≥3 independent experiments, standard error of mean (SEM). (D) PXS‐5338 inhibits rh LOXL2 in a time‐dependent manner, with increasing potency observed upon longer incubation with the enzyme. […]

Row | SMILES | IC50 [µM] | Change of potency with increasing substrate (putrescine) concentration (substrate added simultaneously with inhibitor) | Concentration at which full inhibition of rh LOXL2 is achieved (standard assay using putrescine or collagen as substrate) | Pre-incubation time after which inhibition of rh LOXL2 is complete (varying pre-incubation times, putrescine as substrate) [h]
1 | NC/C=C(\F)CS(=O)(=O)c1cccc(Cn2cc(-c3cc(OCCCc4cn(CCCCC[C@@H]5SC[C@@H]6NC(=O)N[C@@H]65)nn4)cc(OCCCc4cn(CCCCC[C@@H]5SC[C@@H]6NC(=O)N[C@@H]65)nn4)c3)nn2)c1 [PXS-5878] | 0.203 | – | – | –
2 | CC(C)c1c(Cc2ccc(S(C)(=O)=O)nc2)c2ncccc2n1C/C(F)=C/CN [PXS-5338] | – | potency of PXS-5338 decreases | – | –
3 | CC(C)c1c(Cc2ccc(S(C)(=O)=O)nc2)c2ncccc2n1C/C(F)=C/CN [PXS‐5338] | 0.035 | – | above 300 nM | 2
